Data on 17 compounds can be found in patent publication US11434222B2, “MAGL inhibitors” (H. LUNDBECK A/S, priority 2020, dated 2022).

Molecules are shown by their SMILES. Where two headings read alike, the source gives them in different places.

As usually defined, the solubility (kinetic) is solubility judged after dilution from a stock solution rather than from solid. A word on the CLint scaled: it is a measure of how fast metabolising enzymes remove a compound, apart from limits set by blood flow.

Series [1] in a line: Kinetic solubility in PBS. The following applies: aqueous buffer, kinetic from dmso stock. Format: physicochemical. As to the method:
The kinetic solubility of test articles was determined in PBS at pH 2.0 and pH 7.4 in duplicate. A stock solution of test compound in DMSO (10 mM) was incubated at RT for 2 hours with shaking at 1,100 RPM. The sample was then filtered using a vacuum manifold, diluted, and analyzed by LC-MS/MS. Chromatographic conditions: Phenomenex Synergi 4μ Hydro-PR 80A column (2.0×30 mm) coupled with pre-guard column; mobile phase=0.1% formic acid in acetonitrile and 0.1% formic acid in water; flowrate=0.65 mL/min; column temperature=40° C.; injection volume: 3 μL.
Mass conditions: Turbo spray ion source; ESI ionization model; MRM scan type; Collison gas=6 L/min; Curtain gas=30 L/min; Nebulize gas=50 L/min; Auxiliary gas=50 L/min; Temperature=500 degrees C.; Ion spray voltage=+5500 v (positive MRM).
The filtered solution was analyzed and quantified against a standard of known concentration in DMSO using UPLC coupled with mass spectral peak identification and quantitation. Solubility values of the test articles were calculated using Microsoft Excel as follows (DF is the dilution factor): […]

Series [2] can be described thus: In vitro human hepatocyte stability. To be noted: cryopreserved human hepatocytes (pooled donor), human hepatocytes 0.5×10^6 cells/mL, read-out: Scaled-up unbound CLint. Type of series: in vitro ADME. As to the method:
The metabolic stability of test articles (1 μM) in commercially sourced, pooled donor, cryopreserved human hepatocytes (0.5×10^6 cells/mL) was determined in duplicate. The CLint reactions (250 μL) were initiated by addition of test compound. Aliquots (25 μL) were taken at 0, 15, 30, 45, 60, 90, 120 and 240 minutes and then protein crashed with ice-cold acetonitrile containing internal standard then centrifuged (3220 g for 25 minutes). Supernatant was used for LC-MS/MS analysis. The in vitro half-life (in vitro t1/2) was determined from the slope value: in vitro t1/2=−0.693/k. Conversion of the in vitro t1/2 (in min) into the scale-up unbound intrinsic clearance (Scaled-up unbound CLint, in mL/min/kg) was done using the following equation (mean of duplicate determinations), with data shown in Table 5: Scaled-up unbound CLint=kV/N×scaling factor. V=incubation volume (0.25 mL); N=number of hepatocytes per well ([…]). Scaling factors for in vivo intrinsic clearance prediction are listed below: […]

The target in series [3] is T1, MAGL (Mus musculus, UniProt O35678).
T1 construct: brain proteomes were prepared and analyzed according to previously established methods; from tissue; host or cells: brain of wild-type C57Bl/6J mice
T1 sequence (O35678 1-303): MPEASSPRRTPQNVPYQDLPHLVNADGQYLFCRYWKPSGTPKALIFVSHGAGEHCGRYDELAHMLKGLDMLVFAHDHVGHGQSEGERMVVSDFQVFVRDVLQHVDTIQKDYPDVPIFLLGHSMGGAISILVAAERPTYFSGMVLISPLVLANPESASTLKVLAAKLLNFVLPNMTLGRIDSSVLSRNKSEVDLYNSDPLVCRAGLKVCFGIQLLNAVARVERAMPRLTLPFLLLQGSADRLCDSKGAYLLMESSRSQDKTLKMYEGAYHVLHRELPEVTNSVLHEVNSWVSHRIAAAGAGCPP
Kind of series: In vivo MAGL inhibition in mouse brain proteomes after oral gavage. To be noted: 5 mg/kg oral gavage, 4 h after administration, read-out: MAGL % inh. 5 mg/kg (mouse). As to the method:
Inhibitors were administered to wild-type C57B1/6J by oral gavage in a vehicle of polyethylene glycol. Each animal was sacrificed 4 h following administration and brain proteomes were prepared and analyzed according to previously established methods (See Niphakis, M. J., et al. (2011) ACS Chem. Neurosci. and Long, J. Z., et al. Nat. Chem. Biol. 5:37-44).

Series [4] concerns the target T2, MAGL (Homo sapiens, UniProt Q99685).
T2 construct: PC3 human cell membrane proteomes; endogenous in cells; host or cells: PC3 human cells (membrane proteome)
T2 sequence (Q99685 1-303): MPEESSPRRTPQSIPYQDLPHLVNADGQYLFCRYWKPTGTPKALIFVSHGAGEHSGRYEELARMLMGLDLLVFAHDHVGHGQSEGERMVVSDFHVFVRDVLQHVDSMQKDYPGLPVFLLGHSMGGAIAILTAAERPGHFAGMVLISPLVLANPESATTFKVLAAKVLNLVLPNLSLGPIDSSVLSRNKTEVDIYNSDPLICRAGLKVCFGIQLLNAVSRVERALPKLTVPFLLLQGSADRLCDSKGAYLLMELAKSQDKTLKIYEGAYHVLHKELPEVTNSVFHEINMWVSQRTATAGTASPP
Description: In vitro competitive activity-based protein profiling (PC3 human cell membrane proteomes). Type of series: biochemical. Here is the method:
PC3 human cell membrane proteomes (50 µL, 2.0 mg/mL total protein concentration) were preincubated with varying concentrations of inhibitors at 37° C. After 30 min, the ABPP probe JW912-Bodipy (1.0 µL, 50 µM in DMSO) was added and the mixture was incubated for 30 min at room temperature. Reactions were quenched with SDS loading buffer (15 μL-4×) and run on SDS-PAGE. Following gel imaging, serine hydrolase activity was determined by measuring fluorescent intensity of gel bands corresponding to MAGL using ImageJ 1.43u software. Intensities were converted to percent enzyme activity by normalizing to DMSO controls. IC50 values were determined by fitting percent enzyme activities to a non-linear regression, 4-parameter, sigmoidal dose response function in Prism GraphPad.

[5] abbreviates: PBS pH 7.4, RT, read-out: pH 7.4 Solubility (kinetic).

Turning to `O=C(Nc1ccc(-n2cccn2)nc1)C1CC12CCN(C(=O)OC(C(F)(F)F)C(F)(F)F)CC2` (single isomer, unassigned) [Example 29, 1,1,1,3,3,3-hexafluoropropan-2-yl (R or S)-1-((6-(1H-pyrazol-1-yl)pyridin-3-yl)carbamoyl)-6-azaspiro[2.5]octane-6-carboxylate], the solubility (kinetic) at 2 h in series [1] (setting [5]) was determined as 8.63 µM. Also, in series [2], the CLint scaled at 1 μM turned out to be 32.7 mL/min/kg. For `COc1ccc(NC(=O)[C@@H]2CC23CCN(C(=O)OC(C(F)(F)F)C(F)(F)F)CC3)cn1` (single isomer, unassigned) [Example 36], the inhibition at 5 mg/kg at MAGL [3] is 0%. Same read-out and setting: the figure for `COc1ccc(NC(=O)[C@H]2CC23CCN(C(=O)OC(C(F)(F)F)C(F)(F)F)CC3)cn1` (single isomer, unassigned) [Example 37] is 25%.

As for `CN(C(=O)C1CC12CCN(C(=O)OC(C(F)(F)F)C(F)(F)F)CC2)c1cccnc1` (single isomer, unassigned) [Example 43, 1,1,1,3,3,3-hexafluoropropan-2-yl (R or S)-1-(methyl(pyridin-3-yl)carbamoyl)-6-azaspiro[2.5]octane-6-carboxylate], the “MAGL % inh. 1 µM (human PC3)” value on MAGL [4] was 100%. Besides, the inhibition at 5 mg/kg on MAGL [3] was 100%. Further, the kinetic solubility at 2 h in series [1] (setting [5]) turned out to be 233 µM. As for `O=C(OC(C(F)(F)F)C(F)(F)F)N1CCC2(CC1)CC2C(=O)N1CCc2ncncc2C1` (single isomer, unassigned) [Example 60, 1,1,1,3,3,3-hexafluoropropan-2-yl (R or S)-1-(5,6,7,8-tetrahydropyrido[4,3-d]pyrimidine-6-carbonyl)-6-azaspiro[2.5]octane-6-carboxylate], the “MAGL % inh. 1 µM (human PC3)” value on MAGL [4] is reported as 100%. Also, the solubility (kinetic) at 2 h in series [1] (setting [5]) amounted to 259 µM.

Take `O=C(NCc1cccc(C(F)(F)F)n1)C1CC12CCN(C(=O)OC(C(F)(F)F)C(F)(F)F)CC2` (single isomer, unassigned) [Example 76, 1,1,1,3,3,3-hexafluoropropan-2-yl (R or S)-1-(((6-(trifluoromethyl)pyridin-2-yl)methyl)carbamoyl)-6-azaspiro[2.5]octane-6-carboxylate]: the “MAGL % inh. 1 µM (human PC3)” value at MAGL [4] is 100%. Besides, the kinetic solubility at 2 h in series [1] (setting [5]) was determined as 1.33 µM.

As to `O=C(Nc1ccc(C(F)(F)F)nc1)C1CC12CCN(C(=O)OC(C(F)(F)F)C(F)(F)F)CC2` (single isomer, unassigned) [Example 78, 1,1,1,3,3,3-hexafluoropropan-2-yl (R or S)-1-((6-(trifluoromethyl)pyridin-3-yl)carbamoyl)-6-azaspiro[2.5]octane-6-carboxylate], the “MAGL % inh. 1 µM (human PC3)” value at MAGL [4] was determined as 100%. Moreover, the kinetic solubility at 2 h amounted to 17 µM in series [1] (PBS pH 2.0, RT, read-out: pH 2 Solubility (kinetic)) and 12.6 µM in series [1] (setting [5]).

Regarding `Cc1ccc(NC(=O)C2CC23CCN(C(=O)OC(C(F)(F)F)C(F)(F)F)CC3)cn1` (single isomer, unassigned) [Example 81, 1,1,1,3,3,3-hexafluoropropan-2-yl (R or S)-1-((6-methylpyridin-3-yl)carbamoyl)-6-azaspiro[2.5]octane-6-carboxylate], the inhibition at 5 mg/kg at MAGL [3] is 25%. The solubility (kinetic) at 2 h in series [1] (setting [5]) amounted to 130 µM. With `O=C(Nc1cnc(C(F)(F)F)nc1)C1CC12CCN(C(=O)OC(C(F)(F)F)C(F)(F)F)CC2` (single isomer, unassigned) [Example 99, 1,1,1,3,3,3-hexafluoropropan-2-yl (R or S)-1-((2-(trifluoromethyl)pyrimidin-5-yl)carbamoyl)-6-azaspiro[2.5]octane-6-carboxylate], the “MAGL % inh. 1 µM (human PC3)” value on MAGL [4] is recorded as 100%. The kinetic solubility at 2 h in series [1] (setting [5]) stood at 28.5 µM. `Cc1ncc(NC(=O)C2CC23CCN(C(=O)OC(C(F)(F)F)C(F)(F)F)CC3)cn1` (single isomer, unassigned) [Example 103, 1,1,1,3,3,3-hexafluoropropan-2-yl (R or S)-1-((2-methylpyrimidin-5-yl)carbamoyl)-6-azaspiro[2.5]octane-6-carboxylate]: the inhibition at 5 mg/kg at MAGL [3] was 50%. Regarding `Cc1ccc(NC(=O)[C@H]2CC23CCN(C(=O)OC(C(F)(F)F)C(F)(F)F)CC3)nn1` (single isomer, unassigned) [Example 106], the inhibition at 5 mg/kg on MAGL [3] stood at 0%. Still for that read-out and setting: with `O=C(Nc1ccnnc1)C1CC12CCN(C(=O)OC(C(F)(F)F)C(F)(F)F)CC2` (single isomer, unassigned) [Example 108, 1,1,1,3,3,3-hexafluoropropan-2-yl (R or S)-1-(pyridazin-4-ylcarbamoyl)-6-azaspiro[2.5]octane-6-carboxylate] the figure was 75%. Consider `O=C(Nc1cncs1)C1CC12CCN(C(=O)OC(C(F)(F)F)C(F)(F)F)CC2` (single isomer, unassigned) [Example 129, 1,1,1,3,3,3-hexafluoropropan-2-yl (R or S)-1-(thiazol-5-ylcarbamoyl)-6-azaspiro[2.5]octane-6-carboxylate], for which, on MAGL [3], the inhibition at 5 mg/kg was found to be 50%. Also, the CLint scaled at 1 μM in series [2] was 53.6 mL/min/kg. For `O=C(NCc1ccccc1)[C@H]1CC12CCN(C(=O)OC(C(F)(F)F)C(F)(F)F)CC2` (single isomer, unassigned) [Example 150], in series [2], the CLint scaled at 1 μM turned out to be 88.8 mL/min/kg.

As to `CC1(CNC(=O)C2CC23CCN(C(=O)OC(C(F)(F)F)C(F)(F)F)CC3)CCOCC1` (single isomer, unassigned) [Example 168, 1,1,1,3,3,3-hexafluoropropan-2-yl (R or S)-1-(((4-methyltetrahydro-2H-pyran-4-yl)methyl)carbamoyl)-6-azaspiro[2.5]octane-6-carboxylate], the CLint scaled at 1 μM in series [2] stood at 61.4 mL/min/kg. As to `CS(=O)(=O)Nc1ccc(NC(=O)C2CC23CCN(C(=O)OC(C(F)(F)F)C(F)(F)F)CC3)cn1` (single isomer, unassigned) [Example 181, 1,1,1,3,3,3-hexafluoropropan-2-yl (R or S)-1-((6-(methylsulfonamido)pyridin-3-yl)carbamoyl)-6-azaspiro[2.5]octane-6-carboxylate], the solubility (kinetic) at 2 h in series [1] (setting [5]) was determined as 296 µM. The CLint scaled at 1 μM in series [2] worked out at 1.94 mL/min/kg. As for `O=C(Nc1cccnn1)[C@@H]1CC12CCN(C(=O)OC(C(F)(F)F)C(F)(F)F)CC2` [Example 5, 1,1,1,3,3,3-Hexafluoropropan-2-yl (R)-1-(pyridazin-3-ylcarbamoyl)-6-azaspiro[2.5]octane-6-carboxylate], the inhibition at 5 mg/kg at MAGL [3] worked out at 0%.
